What was measured:
[1] = target: T1, Mitogen-activated protein kinase kinase kinase 12 (Homo sapiens) (UniProt Q12852); assay: Selectivity interaction (KinomeScan (DiscoverX)) EUB0000229b MAP3K12; details: at 10 µM
T1 sequence (whole entry): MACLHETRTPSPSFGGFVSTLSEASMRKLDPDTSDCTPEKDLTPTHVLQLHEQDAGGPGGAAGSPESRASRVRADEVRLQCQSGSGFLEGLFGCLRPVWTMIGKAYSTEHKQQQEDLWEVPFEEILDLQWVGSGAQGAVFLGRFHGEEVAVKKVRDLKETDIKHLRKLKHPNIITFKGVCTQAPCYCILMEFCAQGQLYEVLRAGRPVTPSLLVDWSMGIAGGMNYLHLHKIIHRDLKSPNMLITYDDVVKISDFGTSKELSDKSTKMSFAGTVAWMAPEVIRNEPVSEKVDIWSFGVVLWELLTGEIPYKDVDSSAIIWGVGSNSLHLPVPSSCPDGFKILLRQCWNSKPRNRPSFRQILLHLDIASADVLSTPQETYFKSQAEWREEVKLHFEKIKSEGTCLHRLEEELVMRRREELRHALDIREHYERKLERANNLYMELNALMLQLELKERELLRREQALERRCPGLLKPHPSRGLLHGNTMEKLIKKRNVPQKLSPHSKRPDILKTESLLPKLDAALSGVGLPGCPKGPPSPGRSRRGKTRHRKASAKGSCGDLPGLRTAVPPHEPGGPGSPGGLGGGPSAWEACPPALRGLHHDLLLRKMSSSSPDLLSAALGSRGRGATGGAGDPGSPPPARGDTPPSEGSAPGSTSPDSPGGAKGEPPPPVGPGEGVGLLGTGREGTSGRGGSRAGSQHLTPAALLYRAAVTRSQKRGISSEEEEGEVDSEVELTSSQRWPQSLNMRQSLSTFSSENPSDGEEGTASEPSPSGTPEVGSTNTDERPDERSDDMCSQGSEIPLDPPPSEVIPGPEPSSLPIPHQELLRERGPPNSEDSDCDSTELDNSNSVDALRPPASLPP

[2] = target: Mitogen-activated protein kinase kinase kinase kinase 5 (Homo sapiens) (UniProt Q9Y4K4); details: at 10 µM
[3] = test system: Leucine-rich repeat serine/threonine-protein kinase 2 (Homo sapiens), Q5S007 [G2019S]; assay: (§1) Selectivity interaction (KinomeScan (DiscoverX)) EUB0000695a LRRK2; details: at 100 nM
Chain of Leucine-rich repeat serine/threonine-protein kinase 2 (Homo sapiens), Q5S007 [G2019S] (Q5S007 whole entry G2019S): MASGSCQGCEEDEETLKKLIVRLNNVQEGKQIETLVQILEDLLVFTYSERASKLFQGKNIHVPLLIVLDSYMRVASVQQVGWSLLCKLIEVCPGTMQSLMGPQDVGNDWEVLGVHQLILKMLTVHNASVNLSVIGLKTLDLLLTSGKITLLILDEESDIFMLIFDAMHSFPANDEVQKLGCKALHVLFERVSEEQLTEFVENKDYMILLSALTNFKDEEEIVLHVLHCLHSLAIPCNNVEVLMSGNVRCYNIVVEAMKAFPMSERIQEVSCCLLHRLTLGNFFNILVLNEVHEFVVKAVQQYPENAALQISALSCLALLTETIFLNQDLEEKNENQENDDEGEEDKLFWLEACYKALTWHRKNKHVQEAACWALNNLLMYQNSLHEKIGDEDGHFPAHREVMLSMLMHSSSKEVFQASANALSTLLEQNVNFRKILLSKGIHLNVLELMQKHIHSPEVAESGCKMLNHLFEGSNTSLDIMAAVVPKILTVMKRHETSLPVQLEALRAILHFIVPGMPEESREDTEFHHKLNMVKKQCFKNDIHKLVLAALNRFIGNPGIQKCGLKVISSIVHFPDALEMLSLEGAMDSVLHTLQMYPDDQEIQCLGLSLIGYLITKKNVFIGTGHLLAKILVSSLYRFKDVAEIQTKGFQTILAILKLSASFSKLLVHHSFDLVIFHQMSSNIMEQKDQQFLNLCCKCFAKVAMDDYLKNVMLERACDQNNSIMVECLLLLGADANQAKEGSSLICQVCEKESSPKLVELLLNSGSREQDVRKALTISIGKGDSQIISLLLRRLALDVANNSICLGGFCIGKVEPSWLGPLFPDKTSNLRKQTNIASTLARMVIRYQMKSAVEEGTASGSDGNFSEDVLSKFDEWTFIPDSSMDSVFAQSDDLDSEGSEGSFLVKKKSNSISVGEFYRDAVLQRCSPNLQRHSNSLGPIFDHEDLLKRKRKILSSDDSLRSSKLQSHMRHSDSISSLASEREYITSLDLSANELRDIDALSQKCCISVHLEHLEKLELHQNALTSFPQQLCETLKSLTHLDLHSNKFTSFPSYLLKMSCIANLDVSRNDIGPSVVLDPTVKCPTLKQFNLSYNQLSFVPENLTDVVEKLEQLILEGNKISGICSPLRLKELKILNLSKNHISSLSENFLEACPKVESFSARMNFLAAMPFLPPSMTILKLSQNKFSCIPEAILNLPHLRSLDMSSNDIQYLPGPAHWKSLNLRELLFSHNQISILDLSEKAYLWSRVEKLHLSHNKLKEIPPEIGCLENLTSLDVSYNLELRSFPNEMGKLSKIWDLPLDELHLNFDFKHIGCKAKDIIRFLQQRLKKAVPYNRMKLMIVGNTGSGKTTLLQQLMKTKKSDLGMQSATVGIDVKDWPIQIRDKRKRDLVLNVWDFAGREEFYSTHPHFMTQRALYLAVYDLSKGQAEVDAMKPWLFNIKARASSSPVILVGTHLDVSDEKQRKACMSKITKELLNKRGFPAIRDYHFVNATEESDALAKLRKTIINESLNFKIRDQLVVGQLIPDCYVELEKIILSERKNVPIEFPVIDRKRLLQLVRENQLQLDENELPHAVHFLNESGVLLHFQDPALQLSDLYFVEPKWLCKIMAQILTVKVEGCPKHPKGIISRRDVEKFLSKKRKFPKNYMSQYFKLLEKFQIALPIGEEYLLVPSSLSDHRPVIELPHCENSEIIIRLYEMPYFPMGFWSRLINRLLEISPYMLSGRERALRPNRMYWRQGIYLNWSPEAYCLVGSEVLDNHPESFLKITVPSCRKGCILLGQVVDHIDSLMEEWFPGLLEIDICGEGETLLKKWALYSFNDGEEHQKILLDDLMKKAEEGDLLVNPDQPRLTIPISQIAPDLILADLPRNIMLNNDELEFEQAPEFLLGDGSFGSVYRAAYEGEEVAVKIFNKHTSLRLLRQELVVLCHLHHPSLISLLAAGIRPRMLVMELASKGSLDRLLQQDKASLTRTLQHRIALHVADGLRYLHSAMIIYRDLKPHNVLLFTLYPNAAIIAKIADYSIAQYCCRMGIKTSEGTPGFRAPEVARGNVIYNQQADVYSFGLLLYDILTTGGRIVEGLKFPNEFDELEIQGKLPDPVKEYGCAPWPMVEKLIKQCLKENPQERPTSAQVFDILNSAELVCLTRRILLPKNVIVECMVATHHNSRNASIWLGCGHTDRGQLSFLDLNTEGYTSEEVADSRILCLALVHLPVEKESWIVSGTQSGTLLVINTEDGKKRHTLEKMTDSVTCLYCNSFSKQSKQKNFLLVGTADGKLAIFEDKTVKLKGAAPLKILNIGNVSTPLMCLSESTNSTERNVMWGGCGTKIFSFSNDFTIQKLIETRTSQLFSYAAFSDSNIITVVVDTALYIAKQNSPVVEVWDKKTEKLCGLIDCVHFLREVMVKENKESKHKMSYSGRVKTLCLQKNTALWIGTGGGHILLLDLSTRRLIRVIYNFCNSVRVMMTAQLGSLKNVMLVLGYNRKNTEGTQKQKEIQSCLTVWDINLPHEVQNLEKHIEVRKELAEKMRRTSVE

[4] = target: Leucine-rich repeat serine/threonine-protein kinase 2 (Homo sapiens, UniProt Q5S007); assay: as §1; details: at 100 nM
Chain of Leucine-rich repeat serine/threonine-protein kinase 2 (Q5S007 whole entry): as the sequence (Q5S007 whole entry G2019S) above, with S2019G counted along it

[5] = target: T2, Dual specificity protein kinase TTK (Homo sapiens) (UniProt P33981); assay: Selectivity interaction (KinomeScan (DiscoverX)) EUB0001079a TTK; details: at 1 µM
T2 sequence (whole entry): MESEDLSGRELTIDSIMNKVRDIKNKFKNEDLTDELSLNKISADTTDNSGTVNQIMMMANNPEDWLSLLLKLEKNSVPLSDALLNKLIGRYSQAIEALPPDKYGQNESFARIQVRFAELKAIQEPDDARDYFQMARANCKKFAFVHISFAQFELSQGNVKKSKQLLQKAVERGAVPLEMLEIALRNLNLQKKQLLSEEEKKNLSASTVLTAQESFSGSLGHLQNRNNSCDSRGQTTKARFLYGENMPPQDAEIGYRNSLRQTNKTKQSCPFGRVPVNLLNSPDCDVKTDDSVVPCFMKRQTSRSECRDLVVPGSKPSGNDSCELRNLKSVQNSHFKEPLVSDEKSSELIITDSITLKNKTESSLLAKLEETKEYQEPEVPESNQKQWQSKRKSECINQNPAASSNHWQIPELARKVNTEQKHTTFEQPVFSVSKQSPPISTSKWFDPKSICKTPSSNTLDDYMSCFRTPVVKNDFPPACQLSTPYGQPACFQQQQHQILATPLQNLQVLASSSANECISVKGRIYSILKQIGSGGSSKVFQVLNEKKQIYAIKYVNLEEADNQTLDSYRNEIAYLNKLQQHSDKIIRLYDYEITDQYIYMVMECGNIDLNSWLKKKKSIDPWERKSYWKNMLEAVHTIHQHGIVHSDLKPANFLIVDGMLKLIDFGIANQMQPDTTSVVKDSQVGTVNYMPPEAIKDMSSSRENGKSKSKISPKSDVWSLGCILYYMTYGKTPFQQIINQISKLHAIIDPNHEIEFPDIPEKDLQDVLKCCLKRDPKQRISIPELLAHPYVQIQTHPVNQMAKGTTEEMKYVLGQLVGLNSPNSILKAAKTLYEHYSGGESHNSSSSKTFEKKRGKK

[6] = target: Serine/threonine-protein kinase 24 (Homo sapiens) (UniProt Q9Y6E0); assay: Selectivity interaction (KinomeScan (DiscoverX)) EUB0000666a STK24; details: at 10 µM
[7] = target: Bromodomain-containing protein 3 (Homo sapiens) (UniProt Q15059); assay: Selectivity interaction (Bromodomain panel (DSF asssay)) EUB0000270b BRD3
Chain of Bromodomain-containing protein 3 (Homo sapiens) (Q15059 2-726 limits assumed): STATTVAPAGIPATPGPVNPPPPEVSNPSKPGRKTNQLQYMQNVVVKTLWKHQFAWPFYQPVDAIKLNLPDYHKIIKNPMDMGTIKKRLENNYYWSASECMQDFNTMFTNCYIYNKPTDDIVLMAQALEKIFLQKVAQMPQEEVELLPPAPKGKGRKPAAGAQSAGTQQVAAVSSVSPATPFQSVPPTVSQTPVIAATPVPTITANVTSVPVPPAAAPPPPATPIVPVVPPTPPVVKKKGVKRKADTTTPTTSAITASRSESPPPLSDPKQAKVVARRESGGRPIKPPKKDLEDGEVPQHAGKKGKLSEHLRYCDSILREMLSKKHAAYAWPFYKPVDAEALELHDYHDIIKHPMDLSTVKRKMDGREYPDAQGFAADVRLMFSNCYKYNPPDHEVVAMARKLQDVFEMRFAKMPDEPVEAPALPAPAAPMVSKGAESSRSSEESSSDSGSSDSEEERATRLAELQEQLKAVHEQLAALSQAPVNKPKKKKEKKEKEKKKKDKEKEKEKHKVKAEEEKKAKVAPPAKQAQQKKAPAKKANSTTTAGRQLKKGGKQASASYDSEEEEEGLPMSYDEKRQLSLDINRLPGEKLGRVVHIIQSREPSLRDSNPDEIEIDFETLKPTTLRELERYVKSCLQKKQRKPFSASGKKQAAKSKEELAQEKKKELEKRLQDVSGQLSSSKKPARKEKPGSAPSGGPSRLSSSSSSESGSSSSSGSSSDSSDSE

[8] = target: Protein kinase C beta type (Homo sapiens, UniProt P05771); assay: Selectivity interaction (Kinase screening (Upstate/Millipore)) EUB0000604a PRKCB
[9] = target: Tyrosine-protein kinase ABL1 (Homo sapiens, UniProt P00519); assay: Selectivity interaction (Kinase panel (literature)) EUB0001199aCl ABL1; details: at 1 µM
[10] = target: Ephrin type-A receptor 4 (Homo sapiens, UniProt P54764); assay: Selectivity interaction (KinomeScan (DiscoverX)) EUB0000607a EPHA4; details: at 10 µM
[11] = test system: Tyrosine-protein kinase ABL1 (Homo sapiens), P00519 [Q252H]; assay: Selectivity interaction (KinomeScan (DiscoverX)) EUB0000618a ABL1; details: at 10 µM
[12] = target: Casein kinase I isoform epsilon (Homo sapiens, UniProt P49674); assay: Selectivity interaction (ActivX KiNativ screen (kinase selectivity in THP-1 cell lysates)) EUB0000639a CSNK1E; format: subcellular; details: lysate
Chain of Casein kinase I isoform epsilon (P49674 whole entry, looked up, canonical isoform): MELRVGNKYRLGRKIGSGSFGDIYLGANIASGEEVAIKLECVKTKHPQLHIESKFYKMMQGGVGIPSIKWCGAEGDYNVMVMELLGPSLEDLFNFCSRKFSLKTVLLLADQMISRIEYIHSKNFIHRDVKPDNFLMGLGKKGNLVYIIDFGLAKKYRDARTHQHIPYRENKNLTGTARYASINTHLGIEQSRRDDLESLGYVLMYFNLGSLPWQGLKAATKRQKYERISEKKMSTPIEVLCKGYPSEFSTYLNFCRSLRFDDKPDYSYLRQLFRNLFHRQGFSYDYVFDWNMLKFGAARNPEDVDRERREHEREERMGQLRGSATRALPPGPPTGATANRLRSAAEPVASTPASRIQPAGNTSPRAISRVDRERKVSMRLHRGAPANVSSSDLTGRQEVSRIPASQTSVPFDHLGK

[13] = target: Serine/threonine-protein kinase PLK1 (Homo sapiens, UniProt P53350); assay: Selectivity interaction (ActivX KiNativ screen (kinase selectivity in THP-1 cell lysates)) EUB0000639a PLK1; format: subcellular; details: lysate, at 0.01 µM
[14] = target: Cyclin-dependent kinase 18 (Homo sapiens) (UniProt Q07002); assay: Selectivity interaction (ActivX KiNativ screen (kinase selectivity in THP-1 cell lysates)) EUB0000639a CDK18; format: subcellular; details: lysate, at 5 µM
Chain of Cyclin-dependent kinase 18 (Homo sapiens) (Q07002 whole entry): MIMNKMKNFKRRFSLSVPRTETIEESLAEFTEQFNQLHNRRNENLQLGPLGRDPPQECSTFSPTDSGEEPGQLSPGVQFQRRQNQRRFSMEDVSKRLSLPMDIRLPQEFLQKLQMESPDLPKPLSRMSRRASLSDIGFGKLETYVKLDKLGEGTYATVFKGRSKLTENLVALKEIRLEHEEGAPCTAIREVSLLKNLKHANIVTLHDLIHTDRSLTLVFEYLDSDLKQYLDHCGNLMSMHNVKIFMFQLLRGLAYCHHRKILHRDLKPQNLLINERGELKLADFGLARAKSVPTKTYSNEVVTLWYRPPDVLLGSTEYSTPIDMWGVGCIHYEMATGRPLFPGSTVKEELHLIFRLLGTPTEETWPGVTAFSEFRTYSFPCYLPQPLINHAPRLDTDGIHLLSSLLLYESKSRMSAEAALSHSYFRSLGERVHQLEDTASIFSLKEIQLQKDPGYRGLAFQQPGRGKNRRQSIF

[15] = target: Serine/threonine-protein kinase 26 (Homo sapiens, UniProt Q9P289); assay: Selectivity interaction (ActivX KiNativ screen (kinase selectivity in THP-1 cell lysates)) EUB0000639a STK26; format: subcellular; details: lysate, at 1 µM
Chain of Serine/threonine-protein kinase 26 (Q9P289 2-416 limits assumed): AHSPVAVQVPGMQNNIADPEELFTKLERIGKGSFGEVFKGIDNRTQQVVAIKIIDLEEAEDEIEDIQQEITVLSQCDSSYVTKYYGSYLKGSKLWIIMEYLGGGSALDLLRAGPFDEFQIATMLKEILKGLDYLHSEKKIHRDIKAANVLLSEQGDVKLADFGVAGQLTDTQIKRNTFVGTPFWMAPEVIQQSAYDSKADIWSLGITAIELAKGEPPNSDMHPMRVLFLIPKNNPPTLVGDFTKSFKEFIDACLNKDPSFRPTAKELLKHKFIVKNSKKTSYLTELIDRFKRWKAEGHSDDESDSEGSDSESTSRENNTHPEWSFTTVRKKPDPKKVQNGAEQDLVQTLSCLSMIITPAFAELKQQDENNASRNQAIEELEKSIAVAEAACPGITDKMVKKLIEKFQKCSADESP

[16] = target: Serine/threonine-protein kinase Nek6 (Homo sapiens) (UniProt Q9HC98); assay: Selectivity interaction (Ambit KINOMEscan and KiNATiv profiling in Jurkat cells) EUB0000090b NEK6; format: cell-based; details: at 1 µM
Chain of Serine/threonine-protein kinase Nek6 (Homo sapiens) (Q9HC98 whole entry): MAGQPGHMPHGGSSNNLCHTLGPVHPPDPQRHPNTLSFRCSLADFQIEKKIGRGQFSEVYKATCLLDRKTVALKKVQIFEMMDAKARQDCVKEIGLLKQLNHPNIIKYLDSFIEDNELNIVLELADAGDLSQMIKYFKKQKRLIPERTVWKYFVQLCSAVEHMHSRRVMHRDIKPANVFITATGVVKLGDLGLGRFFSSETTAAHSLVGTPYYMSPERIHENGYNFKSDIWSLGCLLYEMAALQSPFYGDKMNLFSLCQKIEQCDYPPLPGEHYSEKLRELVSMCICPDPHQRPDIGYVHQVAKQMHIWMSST

[17] = target: cAMP-dependent protein kinase catalytic subunit beta (Homo sapiens) (UniProt P22694); assay: Selectivity interaction (Ambit KINOMEscan and KiNATiv profiling in Jurkat cells) EUB0000090b PRKACB; format: cell-based; details: at 1 µM

SMILES: COc1cc(N(C)c2ccnc3ccc(C(F)(F)F)cc23)cc(OC)c1OC
- % binding [1]: 78%

SMILES: COCC(=O)NC/C=C/c1ccc2ncnc(Nc3ccc(Oc4ccc(C)nc4)c(C)c3)c2c1 [CP-724714]
- % of control [2]: 86%

SMILES: Cc1cc(F)c(C(=O)Nc2cccc(-c3nncn3C(C)C)n2)cc1-n1cnc(C2CC2)c1
- % of control [3]: 39%
- % of control [4]: 18%

SMILES: Nc1cnc(N2CCc3cc(S(=O)(=O)Nc4c(F)cc(Cl)cc4F)cc(N4CCCC4=O)c32)nc1 [TP-020n]
- % of control [5]: 90%

SMILES: O=C(NOC[C@H](O)CO)c1ccc(F)c(F)c1Nc1ccc(I)cc1F
- % of control [6]: 88%

SMILES: Cc1cc(CN)cc(C)c1-c1ncn(C)c1-c1cncn1C
- dTM [7]: -3.97 K

SMILES: Cc1cnc(Nc2ccc(F)cc2Cl)nc1-c1c[nH]c(C(=O)N[C@H](CO)c2cccc(Cl)c2)c1
- % of inhibition [8]: 4%

SMILES: CN1Cc2nccc(-c3cn(C)nc3-c3ccc(F)cc3)c2C1=O
- % of inhibition [9]: 1%

SMILES: CNC(=O)Nc1ccc(-c2nc(N3CC4CCC(C3)O4)c3cnn(C4CCC5(CC4)OCCO5)c3n2)cc1
- % of control [10]: 100%

SMILES: O[C@H]1CC[C@H](Nc2ncc3nc(Nc4c(F)cc(F)cc4F)n([C@H]4CCOC4)c3n2)CC1
- % of control [11]: 36%

SMILES: CC[C@@H]1[C@H](F)C(=O)N[C@@H]1COc1nccc2cc(C(N)=O)c(OC)cc12 [ZIMLOVISERTIB]
- % of inhibition ([12]; at 0.01 µM): -6.6%
- % of inhibition ([12]; at 0.04 µM): 20.3%
- % of inhibition ([12]; at 0.2 µM): 53%
- % of inhibition ([12]; at 1 µM): 77.8%
- % of inhibition ([12]; at 5 µM): 94.8%
- % of inhibition [13]: -0.3%
- % of inhibition [14]: 6.5%
- % of inhibition [15]: -9.2%

SMILES: CN(C)C/C=C/C(=O)Nc1ccc(C(=O)N2CCCC(Nc3ncc(Cl)c(-c4c[nH]c5ccccc45)n3)C2)cc1 (stereo unspecified)
- % of control [16]: 95%
- % of control [17]: 90%

Reference: ChEMBL document CHEMBL5465560, “Selectivity Literature for EUbOPEN Chemogenomic Library” (2024)
